Patent publication US20210292765A1, “COMPOSITIONS COMPRISING INTERMEDIATE NON-CODING RNA REGULATORS MODULATING THE EXPRESSION OF ETV6 OR FOXO1 AND USES THEREOF” (University of Exeter, priority 2018, published 2021)
Marks after values point to notes of the source that are not given here.

Experiments:
Format in all cases: cell-based
[1] = system: late passage primary human fibroblasts; assay: Cell proliferation index by Ki67 immunofluorescence; settings: for increase in proliferative index: gene knockdown with morpholino oligonucleotides (10 μM)
Method: The proliferative capacity of treated cells was assessed by Ki67 and BrdU staining and by cell counts. Late passage primary human fibroblasts at PD=63 were seeded at 1×10^4 cells per well in 3 biological replicates in 24-well plates, allowed to grow for 10 days and then assayed for cell proliferation by ki67 staining. For assessment of cells in S phase, late passage primary human fibroblasts at PD=63 were seeded at 1×10^4 cells per coverslip as 3 biological replicates in 24-well plates, allowed to grow for 10 days and then were incubated with 5-Bromo-2′-deoxy-uridine (BrdU) for 24 hrs. BrdU incorporation was determined by the 5-Bromo-2′-deoxy-uridine labeling and detection kit I following instructions of the manufacturer (Roche Molecular Biochemicals). BrdU positive cells were visualized and counted by fluorescence microscopy. Cell counts were carried out manually in 3 biological replicates in treated and vehicle-only cultures following trypsinisation and suspension of cells and are presented as mean (+/−SEM). Following treatment, cells were fixed for 10 min with 4% PFA and permeabilized with 0.025% Triton and 10% serum in PBS for 1 hour. Ki-67 staining was carried out by rabbit monoclonal antibody (ab16667, Abcam, UK) at a 1:400 dilution and samples were incubated overnight at 4° C., followed by FITC-conjugated secondary goat anti-rabbit antibody (1:400) for 1 hour, and nuclei were counterstained with DAPI. Coverslips were mounted on slides in DAKO fluorescence mounting medium (S3023; Dako, Santa Clara, USA). The proliferation index was determined by counting the percentage of Ki67 positive cells from at least 400 nuclei from each biological replicate at 400× magnification under a Leica D4000 fluorescence microscope.

[2] = system: late passage primary human fibroblast cells; assay: SASP protein levels in culture medium (MesoScale multiplex ELISA); settings: 24 hrs, culture medium from senescent cells
Method: Late passage primary human fibroblast cells at PD=63 were seeded at 6×10^4 cells per well in a 6 well plate, cultured for 10 days and then treated with at 1 μM or 10 μM trametinib (MEK/ERK inhibitor) or SH-6 (AKT inhibitor) for 24 hours. Cell supernatants were then harvested and stored at −80° C. Levels of GMCSF, IFNγ, IL1β, IL2, IL6, IL8, IL10, IL-12p70, and TNFα SASP components were measured in cell supernatants from treated and vehicle-only control cells using the K15007B MesoScale Discovery multiplex ELISA immunoassay (MSD, Rockville, USA) in 4 biological replicates. Proteins were quantified relative to a standard curve using a Sector Imager SI-6000 according to the manufacturer's instructions.

[3] = system: senescent primary human fibroblasts; assay: Splicing factor transcript expression by qRTPCR (TLDA); settings: 24 hrs, control = 1.00
Method: Late passage primary human fibroblasts at PD=63 were seeded at 6×10^4 cells per well as 3 biological replicates in 6-well plates, allowed to grow for 10 days and then treated with the ERK inhibitor trametinib or the AKT inhibitor SH-6 at 1 μM or 10 μM for 24 hrs. Vehicle (DMSO) only controls were also included under the same growth conditions. The expression levels of 20 splicing factor transcripts previously associated with age, replicative senescence or lifespan in our previous work (Harries et al. 2011; Holly et al. 2013; Lee et al. 2016) were then assessed by qRTPCR. RNA was extracted using TRI Reagent® (Life Technologies, Foster City USA) according to the manufacturer's instructions. Total RNA (100 ng) was reverse transcribed in 20 μl reactions using the Superscript III VILO kit (Life Technologies). Transcript expression was then quantified in duplicate for each biological replicate using TaqMan Low Density Array (TLDA) on QuantStudio 12K Flex (Applied Biosystems, Foster City, USA). Cycling conditions were 1 cycle each of 50° C. for 2 min, 94.5° C. for 10 min and then 40 cycles of 97° C. for 30 s and 57.9° C. for 1 min. The reaction mixes included 50 μl TaqMan Fast Universal PCR Mastermix (Life Technologies), 30 μl dH2O and 20 μl cDNA template. 100 μl reaction mixture was dispensed into the TLDA card chamber and centrifuged twice for 1 min at 1000 rpm. Transcript expression was assessed by the Comparative Ct approach, relative to the IDH3B, GUSB and PP/A endogenous control genes and normalised to their expression in RNA from untreated late passage cells.

[4] = system: late passage primary human fibroblasts; assay: CDKN2A (p16) and CDKN1A (p21) expression by qRTPCR; settings: gene knockdown with morpholino oligonucleotides (10 μM)
[5] = system: late passage primary human fibroblasts; assay: Cellular senescence by SA-β-Gal staining; settings: gene knockdown with morpholino oligonucleotides (10 μM)

CC(=O)Nc1cccc(-n2c(=O)n(C3CC3)c(=O)c3c(Nc4ccc(I)cc4F)n(C)c(=O)c(C)c32)c1 [Trametinib, trametinib]
increase in proliferative index (Ki67 staining) ([1]; low dose (1 μM)): 31% | GM-CSF SASP protein expression ([2]; 1 uM): 24.65*** percentage of the control value | IL1b SASP protein expression ([2]; 1 uM): 156.70** percentage of the control value | IL2 SASP protein expression ([2]; 1 uM): 50.72** percentage of the control value | IL6 SASP protein expression ([2]; 1 uM): 77.75 percentage of the control value | IL8 SASP protein expression ([2]; 1 uM): 44.42** percentage of the control value | IL10 SASP protein expression ([2]; 1 uM): 34.37*** percentage of the control value | IL12p70 SASP protein expression ([2]; 1 uM): 69.64 percentage of the control value | INF-g SASP protein expression ([2]; 1 uM): 95.08 percentage of the control value | TNFa SASP protein expression ([2]; 1 uM): 104.61 percentage of the control value | GM-CSF SASP protein expression ([2]; 10 uM): 9.85*** percentage of the control value | IL1b SASP protein expression ([2]; 10 uM): 50.35** percentage of the control value | IL2 SASP protein expression ([2]; 10 uM): 14.39*** percentage of the control value | IL6 SASP protein expression ([2]; 10 uM): 33.57*** percentage of the control value | IL8 SASP protein expression ([2]; 10 uM): 5.33*** percentage of the control value | IL10 SASP protein expression ([2]; 10 uM): 86.01 percentage of the control value | IL12p70 SASP protein expression ([2]; 10 uM): 77.78 percentage of the control value | INF-g SASP protein expression ([2]; 10 uM): 106.33 percentage of the control value | TNFa SASP protein expression ([2]; 10 uM): 118.65 percentage of the control value | AKAP17A splicing factor mRNA expression ([3]; 1 uM): 2.01*** | HNRNPA0 splicing factor mRNA expression ([3]; 1 uM): 2.38*** | HNRNPA1 splicing factor mRNA expression ([3]; 1 uM): 1.52* | HNRNPA2B1 splicing factor mRNA expression ([3]; 1 uM): 1.53* | HNRNPD splicing factor mRNA expression ([3]; 1 uM): 1.79* | HNRNPH3 splicing factor mRNA expression ([3]; 1 uM): 1.89*** | HNRNPK splicing factor mRNA expression ([3]; 1 uM): 1.68*** | HNRNPM splicing factor mRNA expression ([3]; 1 uM): 1.46* | HNRNPUL2 splicing factor mRNA expression ([3]; 1 uM): 1.63*** | IMP3 splicing factor mRNA expression ([3]; 1 uM): 1.77*** | LSM2 splicing factor mRNA expression ([3]; 1 uM): 0.85 | LSM14A splicing factor mRNA expression ([3]; 1 uM): 1.61** | PNISR splicing factor mRNA expression ([3]; 1 uM): 1.63** | SF3B1 splicing factor mRNA expression ([3]; 1 uM): 1.93*** | SRSF1 splicing factor mRNA expression ([3]; 1 uM): 1.69* | SRSF2 splicing factor mRNA expression ([3]; 1 uM): 2.07** | SRSF3 splicing factor mRNA expression ([3]; 1 uM): 1.64*** | SRSF6 splicing factor mRNA expression ([3]; 1 uM): 2.68*** | SRSF7 splicing factor mRNA expression ([3]; 1 uM): 2.38*** | TRA2B splicing factor mRNA expression ([3]; 1 uM): 1.66* | AKAP17A splicing factor mRNA expression ([3]; 10 uM): 0.74** | HNRNPA0 splicing factor mRNA expression ([3]; 10 uM): 1.11 | HNRNPA1 splicing factor mRNA expression ([3]; 10 uM): 0.49*** | HNRNPA2B1 splicing factor mRNA expression ([3]; 10 uM): 0.70*** | HNRNPD splicing factor mRNA expression ([3]; 10 uM): 0.75** | HNRNPH3 splicing factor mRNA expression ([3]; 10 uM): 0.95 | HNRNPK splicing factor mRNA expression ([3]; 10 uM): 1.02 | HNRNPM splicing factor mRNA expression ([3]; 10 uM): 0.69*** | HNRNPUL2 splicing factor mRNA expression ([3]; 10 uM): 0.94 | IMP3 splicing factor mRNA expression ([3]; 10 uM): 0.97 | LSM2 splicing factor mRNA expression ([3]; 10 uM): 0.82 | LSM14A splicing factor mRNA expression ([3]; 10 uM): 1.18 | PNISR splicing factor mRNA expression ([3]; 10 uM): 1.11 | SF3B1 splicing factor mRNA expression ([3]; 10 uM): 0.96 | SRSF1 splicing factor mRNA expression ([3]; 10 uM): 0.68** | SRSF2 splicing factor mRNA expression ([3]; 10 uM): 0.86* | SRSF3 splicing factor mRNA expression ([3]; 10 uM): 0.72*** | SRSF6 splicing factor mRNA expression ([3]; 10 uM): 0.69*** | SRSF7 splicing factor mRNA expression ([3]; 10 uM): 0.57*** | TRA2B splicing factor mRNA expression ([3]; 10 uM): 0.73**

ETV6 morpholino: Antisense morpholino to 5′ untranslated region of ETV6: CATGTCTCACAGCGAGAGAGATCAG (all phosphorodiamidate morpholino (PMO))
reduction in CDKN2A expression [4]: 24% | increase in proliferative index [1]: 36% | reduction in senescent cell load as measured by SA-β-Gal staining [5]: ~18%

FOXO1 morpholino: Antisense morpholino to 5′ untranslated region of FOXO1: TCCCCCAGCCGCAGGAGAGCCAAGA (all phosphorodiamidate morpholino (PMO))
reduction in CDKN2A expression [4]: 43% | increase in proliferative index [1]: 19% | reduction in senescent cell load as measured by SA-β-Gal staining [5]: ~40%
